From US8530465B2, “1, 2-disubstituted amido-anthraquinone derivatives, preparation method and application thereof” (National Defense Medical Center, priority 2010, dated 2013)

Experiments:
[1] = MTT assay, PhTERT-SEAP (H1299); assay type: cell-based, human; details: human, H1299 cells carrying the PhTERT-SEAP reporter, PhTERT-SEAP (H1299)
Summary of the method: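 Cultured cells received MTT for 4 h at 37 °C, then lysis buffer overnight at 37 °C. Optical density was read at 550 nm.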

MOLT-4 = experiment: NCI drug screen, MOLT-4; assay type: cell-based, human; details: MOLT-4 (Leukemia); 1.00E−5 Molar
Experimental: (§1) In brief, cellular protein levels were determined after 48 hours of drug exposure by sulforhodamine B colorimetry. Through the use of a time 0 cell control, the cell growth can be determined for each cell line thus allowing calculations of the 50% growth inhibitory concentration (GI50), the total growth inhibition (TGI), and the 50% lethal concentration (LC50). Comparison to plates not exposed to drug permits determination of concentration and times of exposure conferring 50% net growth inhibition (GI50), TGI, and 50% cell kill (LC50).
(§2) The screening system in United State National Cancer Institute (NCI) is consisted of 60 kinds of different human cancer cells, which can be used to assay the growth-inhibiting ability or cell toxicity of a compound against various cancer and tumor at a certain concentration.

SR = experiment: NCI drug screen, SR; assay type: cell-based, human; details: SR (Leukemia); 1.00E−5 Molar
Experimental: as §1, §2

K562 = experiment: NCI drug screen, K562; assay type: cell-based, human; details: K562 (Leukemia); 1.00E−5 Molar
Experimental: as §1, §2

EKVX = experiment: NCI drug screen, EKVX; assay type: cell-based, human; details: EKVX (Non-Small Cell Lung Cancer); 1.00E−5 Molar
Experimental: as §1, §2

HOP-92 = experiment: NCI drug screen, HOP-92; assay type: cell-based, human; details: HOP-92 (Non-Small Cell Lung Cancer); 1.00E−5 Molar
Experimental: as §1, §2

NCI-H460 = experiment: NCI drug screen, NCI-H460; assay type: cell-based, human; details: NCI-H460 (Non-Small Cell Lung Cancer); 1.00E−5 Molar
Experimental: as §1, §2

A549/ATCC = experiment: NCI drug screen, A549/ATCC; assay type: cell-based, human; details: A549/ATCC (Non-Small Cell Lung Cancer); 1.00E−5 Molar
Experimental: as §1, §2

COLO 205 = experiment: NCI drug screen, COLO 205; assay type: cell-based, human; details: COLO 205 (Colon Cancer); 1.00E−5 Molar
Experimental: as §1, §2

HCC-2998 = experiment: NCI drug screen, HCC-2998; assay type: cell-based, human; details: HCC-2998 (Colon Cancer); 1.00E−5 Molar
Experimental: as §1, §2

HCT-15 = experiment: NCI drug screen, HCT-15; assay type: cell-based, human; details: HCT-15 (Colon Cancer); 1.00E−5 Molar
Experimental: as §1, §2

KM12 = experiment: NCI drug screen, KM12; assay type: cell-based, human; details: KM12 (Colon Cancer); 1.00E−5 Molar
Experimental: as §1, §2

SW-620 = experiment: NCI drug screen, SW-620; assay type: cell-based, human; details: SW-620 (Colon Cancer); 1.00E−5 Molar
Experimental: as §1, §2

SF-268 = experiment: NCI drug screen, SF-268; assay type: cell-based, human; details: SF-268 (CNS Cancer); 1.00E−5 Molar
Experimental: as §1, §2

SF-295 = experiment: NCI drug screen, SF-295; assay type: cell-based, human; details: SF-295 (CNS Cancer); 1.00E−5 Molar
Experimental: as §1, §2

SNB-19 = experiment: NCI drug screen, SNB-19; assay type: cell-based, human; details: SNB-19 (CNS Cancer); 1.00E−5 Molar
Experimental: as §1, §2

SNB-75 = experiment: NCI drug screen, SNB-75; assay type: cell-based, human; details: SNB-75 (CNS Cancer); 1.00E−5 Molar
Experimental: as §1, §2

LOX IMVI = experiment: NCI drug screen, LOX IMVI; assay type: cell-based, human; details: LOX IMVI (Melanoma); 1.00E−5 Molar
Experimental: as §1, §2

SK-MEL-2 = experiment: NCI drug screen, SK-MEL-2; assay type: cell-based, human; details: SK-MEL-2 (Melanoma); 1.00E−5 Molar
Experimental: as §1, §2

SK-MEL-5 = experiment: NCI drug screen, SK-MEL-5; assay type: cell-based, human; details: SK-MEL-5 (Melanoma); 1.00E−5 Molar
Experimental: as §1, §2

UACC-62 = experiment: NCI drug screen, UACC-62; assay type: cell-based, human; details: UACC-62 (Melanoma); 1.00E−5 Molar
Experimental: as §1, §2

OVCAR-5 = experiment: NCI drug screen, OVCAR-5; assay type: cell-based, human; details: OVCAR-5 (Ovarian Cancer); 1.00E−5 Molar
Experimental: as §1, §2

ACHN = experiment: NCI drug screen, ACHN; assay type: cell-based, human; details: ACHN (Renal Cancer); 1.00E−5 Molar
Experimental: as §1, §2

CAKI-1 = experiment: NCI drug screen, CAKI-1; assay type: cell-based, human; details: CAKI-1 (Renal Cancer); 1.00E−5 Molar
Experimental: as §1, §2

RXF 393 = experiment: NCI drug screen, RXF 393; assay type: cell-based, human; details: RXF 393 (Renal Cancer); 1.00E−5 Molar
Experimental: as §1, §2

MDA-MB-231/ATCC = experiment: NCI drug screen, MDA-MB-231/ATCC; assay type: cell-based, human; details: MDA-MB-231/ATCC (Breast Cancer); 1.00E−5 Molar
Experimental: as §1, §2

T-47D = experiment: NCI drug screen, T-47D; assay type: cell-based, human; details: T-47D (Breast Cancer); 1.00E−5 Molar
Experimental: as §1, §2

MDA-MB-468 = experiment: NCI drug screen, MDA-MB-468; assay type: cell-based, human; details: MDA-MB-468 (Breast Cancer); 1.00E−5 Molar
Experimental: as §1, §2

[2] = tested on: 60 kinds of different human cancer cells; experiment: NCI in vitro 60-cell Drug Screen, whole panel; assay type: cell-based
Experimental: as §1
From the data analysis it follows that approximately 95% of the actives (potent anticancer drugs) from the 60 cell line screen can be identified. By these criteria, five compounds (each with its certification number, refer to FIG. 4) of the invention were reported that having anticancer activity.
as §2

Cc1ccc(C(=O)Nc2c(NC(=O)CN3CCN(C)CC3)ccc3c2C(=O)c2ccccc2C3=O)cc1 [CC-43, 1-(4-methylbenzamido)-2-[2-(4-methylpiperazino)acetylamino]-anthraquinone]
viability at 1 μM ([1]; Conc. 1 μM, read-out: Relative MTT viability (%)): 78.8 ± 3.47%
viability at 10 μM ([1]; Conc. 10 μM, read-out: Relative MTT viability (%) (converted)): 29.5%
viability at 100 μM ([1]; Conc. 100 μM, read-out: Relative MTT viability (%) (converted)): 8.11%
Growth Percent (MOLT-4): 26.04%
Growth Percent (SR): −43.70%
Growth Percent (K562): −4.52%
Growth Percent (EKVX): 78.07%
Growth Percent (HOP-92): 90.68%
Growth Percent (NCI-H460): 37.47%
Growth Percent (A549/ATCC): 83.89%
Growth Percent (COLO 205): 2.29%
Growth Percent (HCC-2998): 28.97%
Growth Percent (HCT-15): 27.47%
Growth Percent (KM12): 44.05%
Growth Percent (SW-620): 39.17%
Growth Percent (SF-268): 59.11%
Growth Percent (SF-295): 89.86%
Growth Percent (SNB-19): 68.75%
Growth Percent (SNB-75): 82.17%
Growth Percent (LOX IMVI): 1.24%
Growth Percent (SK-MEL-2): 123.64%
Growth Percent (SK-MEL-5): 41.30%
Growth Percent (UACC-62): −20.65%
Growth Percent (OVCAR-5): 106.66%
Growth Percent (ACHN): 49.87%
Growth Percent (CAKI-1): 69.76%
Growth Percent (RXF 393): 68.84%
Growth Percent (MDA-MB-231/ATCC): 37.00%
Growth Percent (T-47D): 52.62%
Growth Percent (MDA-MB-468): 7.43%
GI50 ([2]; Homo sapiens, 60 cell, NCI screen, FIG. 6, cell line not stated, read-out: 50% net growth inhibition (GI50)): 130 nM
growth-inhibiting effect against cancer cells, by cancer type ([2]; NCI's screen, 1.00E−5 Molar): could inhibit the cancer cell growth of leukemia, melanoma, and ovarian cancer
Growth Percent, Mean ([2]; mean over tested cell lines, 1.00E−5 Molar): 46.71%
